Experimental data published in patent US20130012432A1, “Peptides for Treatment of Obesity” (Novo Nordisk A/S, priority 2010, published 2013).
≈ marks a conversion by molar mass, not a printed value. Positions of bridges follow the written chain, without caps; N, C: chain ends. Non-standard residues stand in square brackets, D forms with d. Residues, ends and D or L forms follow the SMILES beside them. Groups on a side chain read outwards from the residue. ξ: configuration not given here. *: point of attachment. Palmitoyl(16-(5-tetrazolyl)) = O=C(CCCCCCCCCCCCCCCc1nnn[nH]1)*; Lys(CH2CO2H)2 = N[C@@H](CCCCN(CC(=O)O)CC(=O)O)C(=O)O; C17 diacid = O=C(O)CCCCCCCCCCCCCCCC(=O)*; C16 diacid = O=C(O)CCCCCCCCCCCCCCC(=O)*; Hyp = O=C(O)[C@@H]1C[C@@H](O)CN1; NTA = O=C(O)CN(CC(=O)O)CC(=O)*; ξH = NC(Cc1c[nH]cn1)C(=O)O; hCys = N[C@@H](CCS)C(=O)O; Orn = NCCC[C@H](N)C(=O)O; Dab = NCC[C@H](N)C(=O)O; Dap = NC[C@H](N)C(=O)O; AEEA = NCCOCCOCC(=O)O; ξK = NCCCCC(N)C(=O)O

Assays:
physchem = test: physchem
Description: From a stock solution in vehicle, either H2O or 10 mM phosphate, containing 1 mg (as weighed) compound per ml, 8-11 aliquots are withdrawn and pH-adjusted individually with HCl/NaOH, to cover the whole pH range.

MC1 receptor = MC1 receptor (Homo sapiens, UniProt Q01726); test: biochemical
Procedure, shortened: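 Compounds competed against 125I-NDP-α-MSH (22 pM final) for binding to stably MC1-expressing BHK cell membranes, 30 °C for 90 min in HEPES pH 7.4 buffer with 0.1% HSA or ovalbumin. Bound ligand collected by filtration and counted; binding curves analysed by non-linear regression.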

Sequence of MC1 receptor (Q01726 whole entry): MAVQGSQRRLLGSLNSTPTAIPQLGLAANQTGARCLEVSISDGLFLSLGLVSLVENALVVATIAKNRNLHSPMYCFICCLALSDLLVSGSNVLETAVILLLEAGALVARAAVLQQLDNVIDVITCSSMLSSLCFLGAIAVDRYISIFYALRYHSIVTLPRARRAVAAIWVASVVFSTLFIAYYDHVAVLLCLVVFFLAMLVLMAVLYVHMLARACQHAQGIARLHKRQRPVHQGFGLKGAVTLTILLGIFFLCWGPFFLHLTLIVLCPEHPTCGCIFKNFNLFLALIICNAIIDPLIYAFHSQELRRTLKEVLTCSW

CC(=O)N[C@H]1CCSSC[C@@H](C(=O)N2CCC[C@H]2C(=O)N2CCC[C@H]2C(=O)N[C@@H](CCCCN)C(=O)N[C@@H](CC(=O)O)C(=O)N[C@@H](CNC(=O)CN(CC(=O)O)CC(=O)O)C(=O)N[C@@H](CCCCNC(=O)COCCOCCNC(=O)CCCCCCCCCCCCCCCc2nnn[nH]2)C(N)=O)NC(=O)[C@H](Cc2c[nH]c3ccccc23)NC(=O)[C@H](CCCNC(=N)N)NC(=O)[C@@H](Cc2ccccc2)NC(=O)[C@H](CCC(N)=O)NC1=O [Example 66, Ac-c[homoCys-Gln-D-Phe-Arg-Trp-Cys]-Pro-Pro-Lys-Asp-Dap(BCMA)-Lys[(2-{2-[16-(tetrazol-5-yl)hexadecanoylamino]ethoxy}ethoxy)acetyl]-NH2] (Ac-[hCys]Q[dF]RWCPPKD[Dap](NTA)K([AEEA-Palmitoyl(16-(5-tetrazolyl))])-NH2; disulfide 1-6)
solubility (physchem; pH 4.8, Solubility Conc.): 38 µM (≈ 82.5 µg/mL)
solubility (physchem; pH 6.4, Solubility Conc.): 390 µM (≈ 847 µg/mL)
solubility (physchem; pH 6.5, Solubility Conc.): 474 µM (≈ 1030 µg/mL)
solubility (physchem; pH 6.7, Solubility Conc.): 447 µM (≈ 971 µg/mL)
solubility (physchem; pH 6.9, Solubility Conc.): 455 µM (≈ 988 µg/mL)
solubility (physchem; pH 7.2, Solubility Conc.): 461 µM (≈ 1000 µg/mL)
solubility (physchem; pH 7.4, Solubility Conc.): 478 µM (≈ 1040 µg/mL)
solubility (physchem; pH 7.6, Solubility Conc.): 507 µM (≈ 1100 µg/mL)
solubility (physchem; pH 8.1, Solubility Conc.): 499 µM (≈ 1080 µg/mL)
Ki (MC1 receptor): > 10 µM

CC(=O)N[C@H]1CSSC[C@@H](C(=O)N2CCC[C@H]2C(=O)N2CCC[C@H]2C(=O)N[C@@H](CCCCN)C(=O)N[C@@H](CCC(=O)O)C(=O)N[C@@H](CCCCN(CC(=O)O)CC(=O)O)C(=O)N[C@@H](CCCCNC(=O)COCCOCCNC(=O)CCCCCCCCCCCCCCCc2nnn[nH]2)C(N)=O)NC(=O)[C@H](Cc2c[nH]c3ccccc23)NC(=O)[C@H](CCCNC(=N)N)NC(=O)[C@@H](Cc2ccccc2)NC(=O)[C@H](Cc2c[nH]cn2)NC(=O)[C@H](CCC(=O)O)NC1=O [Example 63, Ac-c[Cys-Glu-His-D-Phe-Arg-Trp-Cys]-Pro-Pro-Lys-Glu-Lys(biscarboxymethyl)-Lys[(2-{2-[16-(tetrazol-5-yl)hexadecanoylamino]ethoxy}ethoxy)acetyl]-NH2] (Ac-CEH[dF]RWCPPKE[Lys(CH2CO2H)2]K([AEEA-Palmitoyl(16-(5-tetrazolyl))])-NH2; disulfide 1-7)
solubility (physchem; pH 3.8, Solubility Conc.): 33 µM (≈ 75.7 µg/mL)
solubility (physchem; pH 4.2, Solubility Conc.): 23 µM (≈ 52.8 µg/mL)
solubility (physchem; pH 4.6, Solubility Conc.): 28 µM (≈ 64.3 µg/mL)
solubility (physchem; pH 5.1, Solubility Conc.): 78 µM (≈ 179 µg/mL)
solubility (physchem; pH 6, Solubility Conc.): 484 µM (≈ 1110 µg/mL)
solubility (physchem; pH 7.9, Solubility Conc.): 451 µM (≈ 1030 µg/mL)
solubility (physchem; pH 8.1, Solubility Conc.): 417 µM (≈ 957 µg/mL)
solubility (physchem; pH 8.5, Solubility Conc.): 495 µM (≈ 1140 µg/mL)
solubility (physchem; pH 8.9, Solubility Conc.): 465 µM (≈ 1070 µg/mL)
Ki (MC1 receptor): > 10 µM

CC(=O)N[C@H]1CCCNC(=O)C[C@@H](C(=O)N2CCC[C@H]2C(=O)N[C@@H](CO)C(=O)NC(CCCCN)C(=O)N[C@@H](CCC(=O)O)C(=O)N[C@@H](CCC(=O)O)C(=O)N[C@@H](CO)C(=O)N[C@@H](CO)C(=O)N[C@@H](CCCCNC(=O)COCCOCCNC(=O)CCCCCCCCCCCCCCCC(=O)O)C(N)=O)NC(=O)CNC(=O)[C@H](Cc2c[nH]c3ccccc23)NC(=O)[C@H](CCCNC(=N)N)NC(=O)[C@@H](Cc2ccccc2)NC(=O)C(Cc2c[nH]cn2)NC(=O)[C@H](CCC(=O)O)NC1=O (some centres unmarked) [Example 40] (Ac-[Orn]E[ξH][dF]RWGDPS[ξK]EESSK([AEEA-C17 diacid])-NH2; lactam 1-8)
solubility (physchem; pH 5.9, Solubility Conc.): 266 µM (≈ 634 µg/mL)
solubility (physchem; pH 6.3, Solubility Conc.): 501 µM (≈ 1190 µg/mL)
solubility (physchem; pH 6.5, Solubility Conc.): 512 µM (≈ 1220 µg/mL)
solubility (physchem; pH 6.7, Solubility Conc.): 493 µM (≈ 1180 µg/mL)
solubility (physchem; pH 7, Solubility Conc.): 505 µM (≈ 1200 µg/mL)
solubility (physchem; pH 7.4, Solubility Conc.): 499 µM (≈ 1190 µg/mL)
solubility (physchem; pH 7.6, Solubility Conc.): 489 µM (≈ 1170 µg/mL)
solubility (physchem; pH 8, Solubility Conc.): 488 µM (≈ 1160 µg/mL)
solubility (physchem; pH 8.2, Solubility Conc.): 503 µM (≈ 1200 µg/mL)
Ki (MC1 receptor): > 10 µM

CC(=O)N[C@H]1CCC(=O)NCCC[C@@H](C(=O)N2CCC[C@H]2C(=O)N2CCC[C@H]2C(=O)N[C@@H](CC(=O)O)C(=O)N[C@@H](CCCCN(CC(=O)O)CC(=O)O)C(=O)N[C@@H](CCCCNC(=O)COCCOCCNC(=O)CCCCCCCCCCCCCCC(=O)O)C(N)=O)NC(=O)[C@H](Cc2c[nH]c3ccccc23)NC(=O)[C@H](CCCNC(=N)N)NC(=O)[C@@H](Cc2ccccc2)NC(=O)[C@H](Cc2c[nH]cn2)NC1=O [Example 13, Ac-c[Glu-His-D-Phe-Arg-Trp-Orn]-Pro-Pro-Asp-Lys(biscarboxymethyl)-Lys({2-[2-(15-carboxypentadecanoylamino)ethoxy]ethoxy}acetyl)-NH2] (Ac-EH[dF]RW[Orn]PPD[Lys(CH2CO2H)2]K([AEEA-C16 diacid])-NH2; lactam 1-6)
solubility (physchem; pH 5.5, Solubility Conc.): 348 µM (≈ 698 µg/mL)
solubility (physchem; pH 5.7, Solubility Conc.): 494 µM (≈ 991 µg/mL)
solubility (physchem; pH 6.1, Solubility Conc.): 473 µM (≈ 949 µg/mL)
solubility (physchem; pH 6.5, Solubility Conc.): 469 µM (≈ 941 µg/mL)
solubility (physchem; pH 6.8, Solubility Conc.): 459 µM (≈ 921 µg/mL)
solubility (physchem; pH 7.1, Solubility Conc.): 506 µM (≈ 1020 µg/mL)
solubility (physchem; pH 7.3, Solubility Conc.): 467 µM (≈ 937 µg/mL)
solubility (physchem; pH 7.7, Solubility Conc.): 472 µM (≈ 947 µg/mL)
solubility (physchem; pH 7.9, Solubility Conc.): 493 µM (≈ 989 µg/mL)
Ki (MC1 receptor): > 10 µM

CC(=O)N[C@H]1CCSSC[C@@H](C(=O)N2CCC[C@H]2C(=O)N2CCC[C@H]2C(=O)N[C@@H](CCCCN)C(=O)N[C@@H](CC(=O)O)C(=O)N[C@@H](CNC(=O)CN(CC(=O)O)CC(=O)O)C(=O)N[C@@H](CCCCNC(=O)COCCOCCNC(=O)CCCCCCCCCCCCCCCc2nnn[nH]2)C(N)=O)NC(=O)[C@H](Cc2c[nH]c3ccccc23)NC(=O)[C@H](CCCNC(=N)N)NC(=O)[C@@H](Cc2ccccc2)NC(=O)[C@@H]2C[C@@H](O)CN2C1=O [Example 67, Ac-c[homoCys-Hyp-D-Phe-Arg-Trp-Cys]-Pro-Pro-Lys-Asp-Dap(BCMA)-Lys[(2-{2-[16-(tetrazol-5-yl)hexadecanoylamino]ethoxy}ethoxy)acetyl]-NH2] (Ac-[hCys][Hyp][dF]RWCPPKD[Dap](NTA)K([AEEA-Palmitoyl(16-(5-tetrazolyl))])-NH2; disulfide 1-6)
solubility (physchem; pH 3.3, Solubility Conc.): 600 µM (≈ 1290 µg/mL)
solubility (physchem; pH 3.4, Solubility Conc.): 420 µM (≈ 906 µg/mL)
solubility (physchem; pH 3.6, Solubility Conc.): 250 µM (≈ 539 µg/mL)
solubility (physchem; pH 4.1, Solubility Conc.): 37 µM (≈ 79.8 µg/mL)
solubility (physchem; pH 5.4, Solubility Conc.): 38 µM (≈ 81.9 µg/mL)
solubility (physchem; pH 5.9, Solubility Conc.): 207 µM (≈ 446 µg/mL)
solubility (physchem; pH 6.3, Solubility Conc.): 482 µM (≈ 1040 µg/mL)
solubility (physchem; pH 6.4, Solubility Conc.): 533 µM (≈ 1150 µg/mL)
solubility (physchem; pH 6.8, Solubility Conc.): 587 µM (≈ 1270 µg/mL)
solubility (physchem; pH 7.3, Solubility Conc.): 590 µM (≈ 1270 µg/mL)
Ki (MC1 receptor): > 10 µM

CC(=O)N[C@H]1CCCCNC(=O)C[C@@H](C(=O)N2CCC[C@H]2C(=O)N2CCC[C@H]2C(=O)N[C@@H](Cc2c[nH]cn2)C(=O)N[C@@H](CCC(=O)O)C(=O)N[C@@H](CCC(=O)O)C(=O)N[C@@H](CO)C(=O)N[C@@H](CO)C(=O)N[C@@H](CCC(=O)O)C(=O)N[C@@H](CCCCNC(=O)COCCOCCNC(=O)CCCCCCCCCCCCCCCC(=O)O)C(N)=O)NC(=O)[C@H](Cc2c[nH]c3ccccc23)NC(=O)[C@H](CCCNC(=N)N)NC(=O)[C@@H](Cc2ccccc2)NC(=O)[C@H](Cc2c[nH]cn2)NC1=O [Example 52] (Ac-KH[dF]RWDPPHEESSEK([AEEA-C17 diacid])-NH2; lactam 1-6)
solubility (physchem; pH 6.1, Solubility Conc.): 169 µM (≈ 399 µg/mL)
solubility (physchem; pH 6.3, Solubility Conc.): 339 µM (≈ 800 µg/mL)
solubility (physchem; pH 6.7, Solubility Conc.): 376 µM (≈ 887 µg/mL)
solubility (physchem; pH 7, Solubility Conc.): 372 µM (≈ 878 µg/mL)
solubility (physchem; pH 7.3, Solubility Conc.): 378 µM (≈ 892 µg/mL)
solubility (physchem; pH 7.5, Solubility Conc.): 382 µM (≈ 901 µg/mL)
solubility (physchem; pH 7.6, Solubility Conc.): 381 µM (≈ 899 µg/mL)
solubility (physchem; pH 8, Solubility Conc.): 391 µM (≈ 923 µg/mL)
solubility (physchem; pH 8.3, Solubility Conc.): 390 µM (≈ 920 µg/mL)
Ki (MC1 receptor): > 10 µM

CC(=O)N[C@H]1CCNC(=O)C[C@@H](C(=O)N2CCC[C@H]2C(=O)N2CCC[C@H]2C(=O)N[C@@H](CCCNC(=N)N)C(=O)N[C@@H](CCC(=O)O)C(=O)N[C@@H](CCCCN(CC(=O)O)CC(=O)O)C(=O)N[C@@H](CCCCNC(=O)COCCOCCNC(=O)CCCCCCCCCCCCCCCc2nnn[nH]2)C(N)=O)NC(=O)[C@H](Cc2c[nH]c3ccccc23)NC(=O)[C@H](CCCNC(=N)N)NC(=O)[C@@H](Cc2ccccc2)NC(=O)[C@H](Cc2c[nH]cn2)NC1=O [Example 15, Ac-c[Dab-His-D-Phe-Arg-Trp-Asp]-Pro-Pro-Arg-Glu-Lys(biscarboxymethyl)-Lys[(2-{2-[16-(tetrazol-5-yl)hexadecanoylamino]ethoxy}ethoxy)acetyl]-NH2] (Ac-[Dab]H[dF]RWDPPRE[Lys(CH2CO2H)2]K([AEEA-Palmitoyl(16-(5-tetrazolyl))])-NH2; lactam 1-6)
solubility (physchem; pH 5, Solubility Conc.): 49 µM (≈ 107 µg/mL)
solubility (physchem; pH 6.1, Solubility Conc.): 26 µM (≈ 56.9 µg/mL)
solubility (physchem; pH 6.8, Solubility Conc.): 60 µM (≈ 131 µg/mL)
solubility (physchem; pH 7.1, Solubility Conc.): 147 µM (≈ 321 µg/mL)
solubility (physchem; pH 7.3, Solubility Conc.): 395 µM (≈ 864 µg/mL)
solubility (physchem; pH 7.4, Solubility Conc.): 445 µM (≈ 973 µg/mL)
solubility (physchem; pH 7.7, Solubility Conc.): 461 µM (≈ 1010 µg/mL)
solubility (physchem; pH 7.8, Solubility Conc.): 441 µM (≈ 964 µg/mL)
solubility (physchem; pH 8, Solubility Conc.): 417 µM (≈ 912 µg/mL)
Ki (MC1 receptor): > 10 µM
